Entries after “also recorded” stand apart in the source; their conditions may differ. Where no end group is shown, it is not given here.
Test system: hepatic stellate cells
Test: Transformation (activation) of cultured hepatic stellate cells on a plastic dish, observed under a microscope
Format: cell-based, rat
Conditions: for suppression of activation of hepatic stellate cells (morphological change with disappearance of vitamin A-containing oil droplets): Example 1, peptide 1 mM, FIG. 2; for suppression of activation of hepatic stellate cells (morphological change with disappearance of oil droplets containing vitamin A): Example 4, peptide 0.5 mM, FIG. 7
Procedure: According to the method previously reported (Okuno M. et al., Gastroenterology 2001; 120: 1784-1800), hepatic stellate cells were isolated from the liver of male Wistar rats (body weight: 350 to 400 g; Japan Clea), and the isolated cells were then seeded in a concentration of 1×10^6 cells/dish on a 3.5-cm culture plastic dish. Thereafter, the cells were cultured in 1 ml of Dulbecco's modified Eagle medium (DMEM; manufactured by SIGMA) containing 10% fetal calf serum (FCS; manufactured by GIBCO).
From day one of isolation of hepatic stellate cells, they were cultured for 7 days with the following peptides added in the medium; QP peptide (Gln-Ile-Leu-Ser-Lys-Leu-Arg-Leu-Ala-Ser-Pro) (SEQ ID NO: 9); QPA peptide (Gln-Ile-Leu-Ser-Ala-Ala-Ala-Leu-Ala-Ser-Pro) (SEQ ID NO: 10); and a control synthetic peptide consisting of 11 amino acids that is derived from a latent TGF-β1 LAP sequence (Thr-Gly-Val-Val-Arg-Gln-Trp-Leu-Ser-Arg-Gly; this is referred to as T200 peptide) (SEQ ID NO: 11) (please refer to FIG. 1), however anticipated not to influence TGF-β activation reaction because of the sequence being apart from the TGF-β activation control region (Gly51 to Arg110) discovered by the present inventors (International Publication WO2005/023870). […] Influence of each peptide on transformation of hepatic stellate cells (which is also referred to as activation of hepatic stellate cells) induced by culturing them on the plastic dish was observed under a microscope.
A 60 mM aqueous stock solution of each peptide was prepared, and the peptide was then dissolved in a medium to make a final concentration of 1 mM. Until the 3rd day of isolation, the aforementioned cells were treated in a DMEM medium containing 10% FCS. On the 4th day, the medium was exchanged with serum free DMEM containing 0.1% bovine serum albumin (BSA) and each peptide with a final concentration of 1 mM, and the culture was further continued for 2 to 4 days. Thereafter, the culture medium was collected as a conditioned medium, and the amount of active TGF-β1 present in the conditioned medium was measured using an ELISA kit manufactured by PROMEGA. At the same time, the state of the cells was observed under a microscope (DMIRB; manufactured by Leica) and was then photographed.
In accordance with the method described in Example 1, the influence of each of the QP peptide, QPA peptide, QPQ peptide and T200 peptide on transformation of the cultured hepatic stellate cells, which occurs by culturing cells on a plastic dish, was observed.
Each peptide was dissolved in a medium to a final concentration of 0.5 mM (approximately 500 μg/ml). At the 1st day of isolation, the aforementioned cells were treated in a DMEM medium containing 10% FCS. On the 2nd day, the medium was changed with serum free DMEM containing 0.1% BSA and each peptide at a final concentration of 0.5 mM, and the culture was further continued for 2 to 7 days. Thereafter, the culture medium was collected as a conditioned medium, and the amount of active TGF-β1 present in the conditioned medium was then quantitated using an ELISA kit manufactured by PROMEGA. At the same time, the state of the cells was observed under a microscope (DMIRB; manufactured by Leica) and photographed.

Substance | suppression of activation of hepatic stellate cells (morphological change with disappearance of vitamin A-containing oil droplets) | suppression of activation of hepatic stellate cells (morphological change with disappearance of oil droplets containing vitamin A)
TGVVRQWLSRG [T200 peptide, reference compound] | did not exhibit such a suppressing effect | did not exhibit such a suppressing effect
N-52QILSAAAAASP62-C (QILSAAALASP) [QPA peptide, mutant of QP peptide with Lys56, Leu57, Arg58 and Leu59 substituted with Ala] | significantly suppressed | significantly suppressed
N-52QILSQQQQASP62-C [QPQ peptide, mutant of QP peptide with Lys56, Leu57, Arg58 and Leu59 substituted with Gln] |  | significantly suppressed; also recorded: strongest suppressing effect
QILSKLRLASP [QP peptide] | weakly suppressing effect | significantly suppressed

From patent publication US7732401B2, “Inhibitor of TGF-β activation reaction” (Riken, priority 2007, dated 2010)
